Data on 73 sequences can be found in the OligoGym collection.

This data set deals with SNHG14. The settings on record: ASO.
Setting [1] is: Mouse Primary Neuronal Cell, 0.005 µM.

After the bases stand the sugars from the 5' end (letter, count) and the backbone: PS all phosphorothioate, else s phosphorothioate and o phosphodiester by linkage. Methylation of C is not given here. l = locked nucleic acid (LNA); d = 2'-deoxy (DNA)

For “TAAAGATCCCATCACTC (sugars l3 d11 l3, PS)”, the target mRNA inhibition (Human Neuronal Cell, 0.2 µM) turned out to be 44% and the target mRNA inhibition (Human Neuronal Cell, 1 µM) was 50%.

Take TAATCCTATTCCAACT (sugars l3 d10 l3, PS): the target mRNA inhibition by setting is: (Human Neuronal Cell, 0.2 µM) 16%; (Human Neuronal Cell, 1 µM) 17%.

For the sequence “TACACAATCAACAACAAAT (sugars l4 d13 l2, PS)”, the target mRNA inhibition is 25% (Human Neuronal Cell, 0.2 µM) and 41% (Human Neuronal Cell, 1 µM).

On to “TACACTTAATTATACTTC (sugars l2 d12 l4, PS)”, for which the target mRNA inhibition by setting is: (Human Neuronal Cell, 0.2 µM) 26%; (Human Neuronal Cell, 1 µM) 42%.

On to “TACACTTAATTATACTTCCA (sugars ldlddllddddddlddddll, PS)”, for which the target mRNA inhibition (Human Neuronal Cell, 7.5 µM) amounted to 59%.

“TACACTTAATTATACTTCCA (sugars lldldlddddddddddddll, PS)”: the target mRNA inhibition (Human Neuronal Cell, 7.5 µM) came to 60%.

Regarding “TACATCTCATACTTGCT (sugars l2 d11 l4, PS)”, the target mRNA inhibition is -18% (Human Neuronal Cell, 0.2 µM); 2% (Human Neuronal Cell, 1 µM); 18% (Human Neuronal Cell, 5 µM); 95% under setting [1].

Turning to “TACCTACATCTCATACT (sugars l2 d13 l2, PS)”, the target mRNA inhibition (Human Neuronal Cell, 0.2 µM) was -1%; the target mRNA inhibition (Human Neuronal Cell, 1 µM) stood at 0%; the target mRNA inhibition (Human Neuronal Cell, 5 µM) came out at 11%; the target mRNA inhibition under setting [1] is 78.6%.

Regarding “TACCTACATCTCATACTT (sugars l4 d12 l2, PS)”, the target mRNA inhibition was -19% (Human Neuronal Cell, 0.2 µM); 3% (Human Neuronal Cell, 1 µM); 7% (Human Neuronal Cell, 5 µM); 94.8% under setting [1].

In the case of “TACTATCTTTGACATTC (sugars l4 d11 l2, PS)”, the target mRNA inhibition was found to be 48% (Human Neuronal Cell, 0.2 µM) and 59% (Human Neuronal Cell, 1 µM).

“TACTCTGCAATACACC (sugars l1 d1 l1 d10 l3, PS)”: where the note is “Human Neuronal Cell, 7.5 µM”, the target mRNA inhibition amounted to 60%.

“TACTCTGCAATACACC (sugars l1 d1 l1 d11 l2, PS)”: where the note is “Human Neuronal Cell, 7.5 µM”, the target mRNA inhibition came out at 50%.

With “TACTCTGCAATACACC (sugars l2 d2 l1 d9 l2, PS)”, the target mRNA inhibition (Human Neuronal Cell, 7.5 µM) came to 61%.

In the case of TACTCTGCAATACACC (sugars l2 d12 l2, PS), where the note is “Human Neuronal Cell, 7.5 µM”, the target mRNA inhibition turned out to be 59%.

In the case of TACTCTGCAATACACC (sugars l3 d11 l2, PS), the target mRNA inhibition (Human Neuronal Cell, 7.5 µM) is 55%.

For the sequence “TACTCTGCAATACACCA (sugars l1 d1 l1 d12 l2, PS)”, the target mRNA inhibition (Human Neuronal Cell, 7.5 µM) worked out at 55%.

Turning to “TACTCTGCAATACACCA (sugars l1 d10 l1 d3 l2, PS)”, the target mRNA inhibition (Human Neuronal Cell, 7.5 µM) turned out to be 59%.

As for “TACTCTGCAATACACCA (sugars l2 d10 l2 d1 l2, PS)”, the target mRNA inhibition (Human Neuronal Cell, 7.5 µM) stood at 60%.

For “TATACACCATCATTATA (sugars l4 d11 l2, PS)”, the target mRNA inhibition (Human Neuronal Cell, 0.2 µM) worked out at 41% and the target mRNA inhibition (Human Neuronal Cell, 1 µM) stood at 60%.

In the case of “TATACCTTTCTTTAACCCTT (sugars ldddddldddddddddldll, PS)”, the target mRNA inhibition (Human Neuronal Cell, 7.5 µM) worked out at 66%.

Take TATAGACCCAAACTAT (sugars l3 d10 l3, PS): the target mRNA inhibition stood at 15% (Human Neuronal Cell, 0.2 µM) and 26% (Human Neuronal Cell, 1 µM).

For “TATCTCATTTACATTATT (sugars l4 d12 l2, PS)”, the target mRNA inhibition runs as follows: (Human Neuronal Cell, 0.2 µM) 27%; (Human Neuronal Cell, 1 µM) 43%.

Regarding “TATTCTTACCGTCTTTA (sugars l3 d11 l3, PS)”, the target mRNA inhibition turned out to be 40% (Human Neuronal Cell, 0.2 µM) and 63% (Human Neuronal Cell, 1 µM).

Consider “TATTGATTCAATTCCCT (sugars l2 d2 l1 d10 l2, PS)”, for which the target mRNA inhibition (Human Neuronal Cell, 7.5 µM) is 55%.

On to “TATTGATTCAATTCCCT (sugars lldldddddddddldll, PS)”, for which the target mRNA inhibition (Human Neuronal Cell, 7.5 µM) amounted to 69%.

As to “TCACACCTATTATATAA (sugars l3 d11 l3, PS)”, the target mRNA inhibition by setting is: (Human Neuronal Cell, 0.2 µM) 11%; (Human Neuronal Cell, 1 µM) 16%.

As for TCACTGTTCTGACTTT (sugars l3 d10 l3, PS), the target mRNA inhibition runs as follows: (Human Neuronal Cell, 0.2 µM) 19%; (Human Neuronal Cell, 1 µM) 18%; (Human Neuronal Cell, 5 µM) 28%.

Consider “TCACTTTCCAGATATCA (sugars l2 d13 l2, PS)”, for which the target mRNA inhibition was 23% (Human Neuronal Cell, 0.2 µM); -6% (Human Neuronal Cell, 1 µM); 17% (Human Neuronal Cell, 5 µM); 46.6% under setting [1].

On to “TCACTTTCCAGATATCA (sugars l4 d11 l2, PS)”, for which the target mRNA inhibition was 17% (Human Neuronal Cell, 0.2 µM); 5% (Human Neuronal Cell, 1 µM); 15% (Human Neuronal Cell, 5 µM); 92% under setting [1].

TCATATTGAACCAATT (sugars l4 d10 l2, PS): the target mRNA inhibition reads like this: (Human Neuronal Cell, 0.2 µM) 59%; (Human Neuronal Cell, 1 µM) 71%.

On to TCATCCCTCCAAGAAA (sugars l4 d10 l2, PS), for which the target mRNA inhibition is -12% (Human Neuronal Cell, 0.2 µM); -17% (Human Neuronal Cell, 1 µM); -46% (Human Neuronal Cell, 5 µM).

Consider “TCCATTTATTTCCATTTAT (sugars ldldlldddddddldddll, PS)”, for which the target mRNA inhibition (Human Neuronal Cell, 7.5 µM) was determined as 55%.

Take “TCCATTTATTTCCATTTATT (sugars l2 d11 l2 d3 l2, PS)”: the target mRNA inhibition (Human Neuronal Cell, 7.5 µM) was determined as 58%.

Turning to TCTCAAAGATCATTCT (sugars l4 d10 l2, PS), the target mRNA inhibition (Human Neuronal Cell, 0.2 µM) is 54% and the target mRNA inhibition (Human Neuronal Cell, 1 µM) was 62%.

As to “TCTCAAAGATCATTCTC (sugars l3 d11 l3, PS)”, the target mRNA inhibition by setting is: (Human Neuronal Cell, 0.2 µM) 57%; (Human Neuronal Cell, 1 µM) 63%.

With “TCTCAGCTTCTTCAAAT (sugars l2 d12 l3, PS)”, the target mRNA inhibition (Human Neuronal Cell, 0.2 µM) came out at 26% and the target mRNA inhibition (Human Neuronal Cell, 1 µM) was determined as 23%.

In the case of “TCTCCAACATAGATCCT (sugars l4 d11 l2, PS)”, the target mRNA inhibition is, setting by setting: (Human Neuronal Cell, 0.2 µM) 33%; (Human Neuronal Cell, 1 µM) 46%.

In the case of “TCTGTATACACCATCCC (sugars l1 d11 l1 d2 l2, PS)”, the target mRNA inhibition (Human Neuronal Cell, 7.5 µM) worked out at 54%.

Turning to “TCTGTATACACCATCCC (sugars l2 d10 l1 d2 l2, PS)”, the target mRNA inhibition (Human Neuronal Cell, 7.5 µM) stood at 61%.

Consider “TCTTTCCATTTATTTCCATT (sugars l2 d3 l1 d11 l3, PS)”, for which, where the note is “Human Neuronal Cell, 7.5 µM”, the target mRNA inhibition turned out to be 56%.

Take “TCTTTGACATTCCATCTC (sugars l4 d12 l2, PS)”: the target mRNA inhibition was 49% (Human Neuronal Cell, 0.2 µM) and 56% (Human Neuronal Cell, 1 µM).

With “TGAAAATCTCAACTACCAT (sugars l1 d3 l2 d10 l3, PS)”, the target mRNA inhibition (Human Neuronal Cell, 7.5 µM) turned out to be 43%.

As for “TGAAAATCTCAACTACCAT (sugars l1 d11 l1 d2 l4, PS)”, under “Human Neuronal Cell, 7.5 µM”, the target mRNA inhibition was found to be 24%.

For the sequence “TGAAAATCTCAACTACCAT (sugars lddldlddddddldddlll, PS)”, for the setting “Human Neuronal Cell, 7.5 µM”, the target mRNA inhibition was determined as 19%.

In the case of “TGAAACATTCTTCCCAC (sugars l2 d12 l3, PS)”, the target mRNA inhibition came to 11% (Human Neuronal Cell, 0.2 µM) and 13% (Human Neuronal Cell, 1 µM).

Turning to TGCAAATACCTCTTCA (sugars l4 d10 l2, PS), the target mRNA inhibition (Human Neuronal Cell, 0.2 µM) amounted to 64% and the target mRNA inhibition (Human Neuronal Cell, 1 µM) amounted to 69%.

As for TGTACTTACACATCTA (sugars l3 d10 l3, PS), the target mRNA inhibition came to 42% (Human Neuronal Cell, 0.2 µM) and 34% (Human Neuronal Cell, 1 µM).

In the case of “TGTTTATACCCTTTCCAA (sugars l1 d12 l2 d1 l2, PS)”, the target mRNA inhibition (Human Neuronal Cell, 7.5 µM) came out at 58%.

With “TGTTTATACCCTTTCCAA (sugars lddlddddddddlddlll, PS)”, for the setting “Human Neuronal Cell, 7.5 µM”, the target mRNA inhibition amounted to 61%.

“TGTTTATACCCTTTCCAA (sugars lldldlddddddldddll, PS)”: the target mRNA inhibition (Human Neuronal Cell, 7.5 µM) was found to be 54%.

For “TGTTTCCATCTACTATTA (sugars lddddlddddddddldll, PS)”, the target mRNA inhibition (Human Neuronal Cell, 7.5 µM) was determined as 62%.

With “TGTTTCCATCTACTATTA (sugars lddddldddddddlddll, PS)”, the target mRNA inhibition (Human Neuronal Cell, 7.5 µM) turned out to be 62%.

For “TGTTTCCATCTACTATTA (sugars lddldlddddddddddll, PS)”, the target mRNA inhibition (Human Neuronal Cell, 7.5 µM) amounted to 59%.

With TTAAGCTTTCACCTAT (sugars l2 d10 l4, PS), the target mRNA inhibition runs as follows: (Human Neuronal Cell, 0.2 µM) 37%; (Human Neuronal Cell, 1 µM) 54%.

In the case of “TTACACTTAATTATACTTCC (sugars ldddldldddddddllddll, PS)”, the target mRNA inhibition (Human Neuronal Cell, 7.5 µM) was 62%.

With “TTACACTTAATTATACTTCC (sugars lddlldldddddddddddll, PS)”, where the note is “Human Neuronal Cell, 7.5 µM”, the target mRNA inhibition is 68%.

As to “TTACACTTAATTATACTTCC (sugars ldldldldddddddddldll, PS)”, under “Human Neuronal Cell, 7.5 µM”, the target mRNA inhibition was 65%.

For the sequence “TTACCTACATCTCATACTT (sugars l2 d15 l2, PS)”, the target mRNA inhibition is -5% (Human Neuronal Cell, 0.2 µM); -7% (Human Neuronal Cell, 1 µM); 7% (Human Neuronal Cell, 5 µM); 79% under setting [1].

For “TTATACCTTTCTTTAACCCT (sugars l1 d5 l1 d11 l2, PS)”, under “Human Neuronal Cell, 7.5 µM”, the target mRNA inhibition worked out at 59%.

As to “TTATACCTTTCTTTAACCCT (sugars ldddldldddddddldddll, PS)”, for the setting “Human Neuronal Cell, 7.5 µM”, the target mRNA inhibition worked out at 62%.

In the case of “TTATACCTTTCTTTAACCCT (sugars ldldddddddddddddldll, PS)”, the target mRNA inhibition (Human Neuronal Cell, 7.5 µM) is 53%.

Regarding “TTATACCTTTCTTTAACCCT (sugars ldlddddddddddlddddll, PS)”, for the setting “Human Neuronal Cell, 7.5 µM”, the target mRNA inhibition was determined as 60%.

“TTATAGCCATTCTATCT (sugars l1 d1 l1 d10 l4, PS)”: the target mRNA inhibition (Human Neuronal Cell, 7.5 µM) turned out to be 55%.

As for “TTATAGCCATTCTATCT (sugars l1 d1 l2 d11 l2, PS)”, the target mRNA inhibition (Human Neuronal Cell, 7.5 µM) stood at 66%.

For “TTATAGCCATTCTATCT (sugars l2 d10 l2 d1 l2, PS)”, the target mRNA inhibition (Human Neuronal Cell, 7.5 µM) came to 56%.

“TTATAGCCATTCTATCT (sugars l2 d11 l1 d1 l2, PS)”: the target mRNA inhibition (Human Neuronal Cell, 7.5 µM) amounted to 56%.

Consider “TTATAGCCATTCTATCT (sugars l3 d10 l1 d1 l2, PS)”, for which the target mRNA inhibition (Human Neuronal Cell, 7.5 µM) was 59%.

Consider “TTATAGCCATTCTATCT (sugars ldddldddddddlddll, PS)”, for which the target mRNA inhibition (Human Neuronal Cell, 7.5 µM) amounted to 31%.

On to “TTATAGCCATTCTATCT (sugars ldddlddddddllddll, PS)”, for which, under “Human Neuronal Cell, 7.5 µM”, the target mRNA inhibition came out at 16%.

Regarding “TTATAGCCATTCTATCT (sugars lddlddddddddlddll, PS)”, under “Human Neuronal Cell, 7.5 µM”, the target mRNA inhibition stood at 17%.

Consider “TTATAGCCATTCTATCT (sugars lddldddddddldddll, PS)”, for which the target mRNA inhibition (Human Neuronal Cell, 7.5 µM) is 36%.

For the sequence “TTATAGCCATTCTATCT (sugars lddldddddddldllll, PS)”, where the note is “Human Neuronal Cell, 7.5 µM”, the target mRNA inhibition came to 22%.

In the case of “TTATAGCCATTCTATCT (sugars lddllddddddddldll, PS)”, the target mRNA inhibition (Human Neuronal Cell, 7.5 µM) worked out at 62%.
